Laboratory results as given in patent US9447086B2, “6-amino acid heteroaryldihydropyrimidines for the treatment and prophylaxis of hepatitis B virus infection” (priority 2012, dated 2016).
Converted amounts (≈) assume the structure as drawn.

What was measured:
[1] = Metabolic stability study in human microsome; type: in vitro ADME
Description: Human Microsomes were preincubated with test compound for 10 min at 37° C. in 100 mM phosphate buffer, pH 7.4. The reactions were initiated by adding NADPH or NADPH regenerating system to give a final incubation volume of 400 μL. For NADPH system, the final incubations contained 1 μM test compound, 0.5 mg/mL liver microsomal protein, 1 mM NADPH in 100 mM phosphate buffer, pH 7.4. For the NADPH regenerating system, the final incubations contained 1 μM test compound, 0.5 mg/mL liver microsomal protein, 3 mM glucose 6-phosphate, 1 mM NADP, 3 mM MgCl2 and 0.05 mg/mL glucose 6-phosphate dehydrogenase in 100 mM phosphate buffer, pH 7.4. After incubation times of 0, 3, 6, 9, 15 and 30 minutes at 37° C., 50 μL samples was removed and transferred to 150 μL methanol solution which was maintained at 4° C. containing 2 μM tolbutamide (internal standard) to terminating the reaction. Following precipitation and centrifugation, the amount of compound remaining in the samples were determined by LC-MS/MS. Controls of no NADPH or NADPH regenerating system at zero and 30 min were also prepared and analyzed.

[2] = Lyophilisation solubility assay (Lysa); type: physicochemical; conditions: phosphate buffer, pH 6.5, aqueous buffer, thermodynamic from solid
Description: The aqueous solubility is an important physico-chemical property that plays a significant role in various physical and biological processes. It is desirable to have good solubility which enables good permeability and gastric and intestinal absorption, linear dose proportionality, less PK variability, and easy formulation for PD/PK studies. […] Lyophilisation solubility assay (Lysa) is a well adopted high throughput assay to measure compound solubility in industry.
Samples are prepared in duplicate from 10 mM DMSO stock solutions. After evaporation of DMSO with a centrifugal vacuum evaporator, the residue is solved in 0.05 M phosphate buffer (pH 6.5), stirred for one hour and shaken for two hours. After one night, the solutions is filtered using a microtiter filter plate and the filtrate and its 1/10 dilution are then analyzed by direct UV measurement or by HPLC-UV. […] The results are in μg/mL.

Structure (SMILES) | Human Hepatic Clearance [1] [mL/min/kg] | solubility thermodynamic [2] [µg/mL]
COC(=O)C1=C(CN2CC(F)(F)C[C@H]2C(=O)O)NC(c2nccs2)=NC1c1ccc(F)cc1Cl (stereo partly drawn) [Example 1, 6-((S)-2-Carboxy-4,4-difluoro-pyrrolidin-1-ylmethyl)-4-(2-chloro-4-fluoro-phenyl)-2-thiazol-2-yl-1,4-dihydro-pyrimidine-5-carboxylic acid methyl ester] | 7.51 | –
COC(=O)C1=C(CN2CC(F)(F)CCC2C(=O)O)NC(c2nccs2)=N[C@H]1c1ccc(F)cc1Cl (stereo partly drawn) [Example 7, (R)-6-(2-Carboxy-5,5-difluoro-piperidin-1-ylmethyl)-4-(2-chloro-4-fluoro-phenyl)-2-thiazol-2-yl-1,4-dihydro-pyrimidine-5-carboxylic acid methyl ester] | 6.12 | 398 (≈ 752 µM)
COC(=O)C1=C(CN2CC(F)(F)C[C@H]2C(=O)O)NC(c2cc(C)ccn2)=N[C@H]1c1ccc(F)cc1Cl [Example 8, (R)-6-((S)-2-Carboxy-4,4-difluoro-pyrrolidin-1-ylmethyl)-4-(2-chloro-4-fluoro-phenyl)-2-(4-methyl-pyridin-2-yl)-1,4-dihydro-pyrimidine-5-carboxylic acid methyl ester] | 6.33 | > 620
COC(=O)C1=C(CN2CCOC[C@H]2C(=O)O)NC(c2cc(C)ccn2)=N[C@H]1c1ccc(F)cc1Cl [Example 9, (S)-4-[(R)-6-(2-Chloro-4-fluoro-phenyl)-5-methoxycarbonyl-2-(4-methyl-pyridin-2-yl)-3,6-dihydro-pyrimidin-4-ylmethyl]-morpholine-3-carboxylic acid] | 10.07 | > 645
COC(=O)C1=C(CN2CCOC[C@H]2C(=O)O)NC(c2nccn2C)=NC1c1ccc(F)cc1Cl (stereo partly drawn) [Example 13, (S)-4-[6-(2-Chloro-4-fluoro-phenyl)-5-methoxycarbonyl-2-(1-methyl-1H-imidazol-2-yl)-3,6-dihydro-pyrimidin-4-ylmethyl]-morpholine-3-carboxylic acid] | 2.33 | 594 (≈ 1210 µM)
COC(=O)C1=C(CN2CC(F)(F)C[C@H]2C(=O)O)NC(c2nc(C)co2)=N[C@H]1c1ccc(F)cc1Cl [Example 15, (R)-6-((S)-2-Carboxy-4,4-difluoro-pyrrolidin-1-ylmethyl)-4-(2-chloro-4-fluoro-phenyl)-2-(4-methyl-oxazol-2-yl)-1,4-dihydro-pyrimidine-5-carboxylic acid methyl ester] | 3.53 | > 627
COC(=O)C1=C(CN2CC(F)(F)C[C@H]2C(=O)O)NC(c2cc(C)cs2)=N[C@H]1c1ccc(F)cc1Cl [Example 27, (R)-6-((S)-2-Carboxy-4,4-difluoro-pyrrolidin-1-ylmethyl)-4-(2-chloro-4-fluoro-phenyl)-2-(4-methyl-thiophen-2-yl)-1,4-dihydro-pyrimidine-5-carboxylic acid methyl ester] | 8.79 | –
CC(C)(C)OC(=O)C1=C(CN2CCOC[C@H]2C(=O)O)NC(c2nccs2)=N[C@H]1c1ccc(F)cc1Cl [Example 105, (S)-4-[5-tert-Butoxycarbonyl-6-(2-chloro-4-fluoro-phenyl)-2-thiazol-2-yl-3,6-dihydro-pyrimidin-4-ylmethyl]-morpholine-3-carboxylic acid] | 8.13 | –
CCOC(=O)C1=C(CN2CCOC[C@H]2C(=O)O)NC(c2nccs2)=N[C@H]1c1ccc(Cl)cc1 [Example 126, (3S)-4-[[(4S)-4-(4-Chlorophenyl)-5-ethoxycarbonyl-2-(1,3-thiazol-2-yl)-1,4-dihydropyrimidin-6-yl]methyl]morpholine-3 carboxylic acid] | 0 | –
